Counter-ions that a name gives are not always drawn.
What was measured:
CDK4/cyclinD1 = CDK4/cyclinD1 (Homo sapiens, UniProt P11802); assay: In vitro filtration assay for CDK4 inhibitory activity; assay type: biochemical; settings: GST-pRb phosphorylation, [33P]-ATP, 1 μM unlabeled ATP, 25° C., 45 minutes; read-out: cdk4 filter (pIC50) (converted)
Procedure: C.1. In Vitro Filtration Assay for CDK4 Inhibitory Activity
(§1) Compounds of the present invention were tested in an in vitro filtration assay assessing CDK4 activity by means of its pRb-phosphorylation activity using [^33P]-ATP as phosphor donor. The radioactive phosphorylated pRb is then captured on filtermats and the incorporated [^33P] quantitated using a phosphorage storage screen.
The CDK4 kinase reaction is performed at 25° C. for 45 minutes in a 96-well microtiterplate. The 25 μl reaction volume contains 50 mM Hepes pH 7.5, 10 mM NaF, 10 mM MgCl2, 1 mM Na3VO4, 1 μM unlabeled ATP, 1 mM DTT, 0.5 μCi AT^33P, 0.76 μg/well GST-pRb, 50 ng CDK4/cyclinD1/well and 0.2% compound in 100% DMSO.
(§2) The reaction is stopped by adding 5 μl of a 3% phosphoric acid solution. 10 μl of the reaction mixture is then spotted onto a Filtermat P30 filter (Wallac) and washed 3 times for 5 min. in 75 mM phosphoric acid and 1 time for 5 min. in methanol prior to drying and quantification on the Typhoon (Amersham) using a phosphorage storage screen.
(§3) C.4. Calculation of pIC50 Values
(§4) For each experiment, controls (containing enzyme (complex) and DMSO without compound), a blank incubation (containing DMSO but no enzyme (complex) or compound) and samples (containing enzyme (complex) and compound dissolved in DMSO) were run in parallel. All compounds tested were dissolved and eventually further diluted in DMSO. […] In each test, the blank value was subtracted from both the control and the sample values. The control sample represented maximal enzyme activity. For each sample, the amount of cpm was expressed as a percentage of the mean cpm value of the controls. When appropriate, IC50-values (concentration of the drug, needed to reduce the enzyme activity to 50% of the control) were computed using linear interpolation between the experimental points just above and below the 50% level. Herein the effects of test compounds are expressed as pIC50 (the negative log value of the IC50-value).

Aurora-B = Aurora-B (Homo sapiens, UniProt Q96GD4); assay: In vitro filtration assay for AURORA B inhibitory activity; assay type: biochemical; settings: peptide (C(LRRWSLG)×4) substrate, [33P]-ATP, 1 μM unlabeled ATP, 25° C., 40 minutes; read-out: Aurora B see C.3 (pIC50) (converted)
Sequence of Aurora-B (Q96GD4 whole entry): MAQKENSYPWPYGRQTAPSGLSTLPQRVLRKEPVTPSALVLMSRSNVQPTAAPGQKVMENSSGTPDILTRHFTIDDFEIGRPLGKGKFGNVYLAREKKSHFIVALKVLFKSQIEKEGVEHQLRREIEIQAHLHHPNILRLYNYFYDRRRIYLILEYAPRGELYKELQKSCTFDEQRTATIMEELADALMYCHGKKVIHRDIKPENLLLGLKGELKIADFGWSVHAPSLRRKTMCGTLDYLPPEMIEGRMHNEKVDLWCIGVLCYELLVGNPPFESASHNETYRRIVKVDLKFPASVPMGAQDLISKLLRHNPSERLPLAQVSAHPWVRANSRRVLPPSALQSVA
Procedure: C.3 In Vitro Filtration Assay for AURORA B Inhibitory Activity
as §1, with “AURORA B” for “CDK4”, “substrate-phosphorylation” for “pRb-phosphorylation”, “substrate” for “pRb”
The Aurora-B kinase reaction is performed at 25° C. for 40 minutes in a 96-well microtiterplate. The 25 μl reaction volume contains 60 mM Hepes pH 7.5, 3 mM MgCl2, 3 mM MnCl2, 3 μM Na3VO4, 50 μg/ml PEG20000, 1 μM unlabeled ATP, 1 mM DTT, 0.2 μCi AT^33P, 0.25 μg/well peptide (C(LRRWSLG)×4), 100 ng Aurora-B/well and 0.2% compound in 100% DMSO.
as §2, §3, §4

Aurora A = molecular target: T1, Aurora A (Homo sapiens, UniProt O14965); assay: In vitro filtration assay for AURORA A inhibitory activity; assay type: biochemical; settings: 200 μM Kemptide substrate, [33P]-ATP, 1 μM unlabeled ATP, 25° C., 40 minutes; read-out: Aurora A see C.2 (pIC50) (converted)
T1 sequence (O14965 1-403): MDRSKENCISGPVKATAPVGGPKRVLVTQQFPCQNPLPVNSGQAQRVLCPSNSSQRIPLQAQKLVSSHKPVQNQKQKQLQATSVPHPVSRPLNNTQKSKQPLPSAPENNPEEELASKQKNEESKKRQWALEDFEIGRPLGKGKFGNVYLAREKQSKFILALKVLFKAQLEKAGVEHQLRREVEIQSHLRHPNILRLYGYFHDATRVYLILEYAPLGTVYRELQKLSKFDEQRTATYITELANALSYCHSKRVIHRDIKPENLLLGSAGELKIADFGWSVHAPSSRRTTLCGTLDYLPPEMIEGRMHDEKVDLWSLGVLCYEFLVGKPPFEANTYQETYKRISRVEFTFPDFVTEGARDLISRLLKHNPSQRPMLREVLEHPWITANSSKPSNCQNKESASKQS
Procedure: C.2. In Vitro Filtration Assay for AURORA A Inhibitory Activity
as §1, with “AURORA A” for “CDK4”, “substrate-phosphorylation” for “pRb-phosphorylation”, “substrate” for “pRb”
The Aurora-A kinase reaction is performed at 25° C. for 40 minutes in a 96-well microtiterplate. The 25 μl reaction volume contains 12 mM MOPS pH 7, 0.4 mM EDTA, 0.002% Brij35, 1% glycerol, 0.02% beta-mercapto-ethanol, 0.2 mg/ml BSA, 1 μM unlabeled ATP, 0.2 μCi [^33P]-ATP, 200 μM Kemptide, 3 ng Aurora A/well and 0.2% compound in 100% DMSO.
as §2, §3, §4

Sequence of CDK4/cyclinD1 (P11802 whole entry, species assumed): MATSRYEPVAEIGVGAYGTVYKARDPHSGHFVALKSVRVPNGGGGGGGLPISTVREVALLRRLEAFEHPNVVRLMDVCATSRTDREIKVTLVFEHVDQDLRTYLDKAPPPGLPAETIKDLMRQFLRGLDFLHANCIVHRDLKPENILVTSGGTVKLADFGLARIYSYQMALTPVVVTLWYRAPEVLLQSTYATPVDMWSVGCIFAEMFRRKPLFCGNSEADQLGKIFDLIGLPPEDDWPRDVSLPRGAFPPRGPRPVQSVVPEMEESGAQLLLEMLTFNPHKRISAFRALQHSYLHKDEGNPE
Sequence of CDK4/cyclinD1 (P24385 whole entry partner, species assumed): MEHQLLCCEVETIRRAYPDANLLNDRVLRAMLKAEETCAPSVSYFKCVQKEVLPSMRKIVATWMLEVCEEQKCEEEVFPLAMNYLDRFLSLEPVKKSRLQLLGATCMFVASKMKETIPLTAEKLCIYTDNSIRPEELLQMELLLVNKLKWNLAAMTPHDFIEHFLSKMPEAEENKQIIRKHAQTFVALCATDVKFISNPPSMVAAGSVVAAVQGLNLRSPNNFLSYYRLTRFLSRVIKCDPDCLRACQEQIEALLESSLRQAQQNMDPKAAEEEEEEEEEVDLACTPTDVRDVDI

Row | IC50 (CDK4/cyclinD1) | IC50 (Aurora-B) | IC50 (Aurora A) | melting point | Structure (SMILES)
1 | 63.1 nM | 501 nM | 316 nM | – | O=C(NC1Cc2ccccc2C1)c1ccc(Nc2ncc3cnn(C4CCCCC4)c3n2)cc1 [Co. No. 17]
2 | > 10000 nM | > 10000 nM | 1000 nM | – | CC(C)(C)OC(=O)N(Cc1ccc(Nc2ncc3cnn(C4CCCCC4)c3n2)cc1)C1Cc2ccccc2C1 [Co. No. 15]
3 | 158 nM | 7940 nM | 316 nM | – | c1cc2cc(Nc3ncc4cnn(C5CCCCC5)c4n3)ccc2[nH]1 [Co. No. 14]
4 | 12.6 nM | 7940 nM | 251 nM | – | c1ccc2c(c1)CC(NCc1ccc(Nc3ncc4cnn(C5CCCCC5)c4n3)cc1)C2 [Co. No. 16]
5 | 100 nM | 7940 nM | 631 nM | – | CN(C)CCOC(=O)c1ccc(Nc2ncc3cnn(C4CCCCC4)c3n2)cc1 [Co. No. 21]
6 | 631 nM | 7940 nM | 3980 nM | – | COCCCNCc1ccc(Nc2ncc3cnn(C4CCOCC4)c3n2)cc1 [Co. No. 12]
7 | 2000 nM | 5010 nM | 794 nM | – | COCCCN(Cc1ccc(Nc2ncc3cnn([C@H]4C[C@@H]5CC[C@H]4C5)c3n2)cc1)C(=O)OC(C)(C)C [Co. No. 11]
8 | > 10000 nM | > 10000 nM | 6310 nM | – | CC(C)(C)OC(=O)N(Cc1ccc(Nc2ncc3cnn([C@H]4C[C@@H]5CC[C@H]4C5)c3n2)cc1)C1Cc2ccccc2C1 [Co. No. 20]
9 | 2000 nM | 794 nM | 100 nM | – | COCCCN(Cc1ccc(Nc2ncc3cnn(C4CCOCC4)c3n2)cc1)C(=O)OC(C)(C)C [Co. No. 13]
10 | 63.1 nM | 6310 nM | 3160 nM | – | c1ccc2c(c1)CC(NCc1ccc(Nc3ncc4cnn(C5CCOCC5)c4n3)cc1)C2 [Co. No. 18]
11 | > 10000 nM | 631 nM | 158 nM | – | CC(C)(C)OC(=O)N(c1ccc(CN(C(=O)OC(C)(C)C)C2Cc3ccccc3C2)cc1)c1ncc2cnn([C@H]3C[C@@H]4CC[C@H]3C4)c2n1 [Co. No. 19]
12 | 31.6 nM | 200 nM | 200 nM | – | COCCCNCc1ccc(Nc2ncc3cnn([C@H]4C[C@@H]5CC[C@H]4C5)c3n2)cc1 [Co. No. 10]

Second part, the molecule before the results:

Row | Structure (SMILES) | IC50 (CDK4/cyclinD1) | IC50 (Aurora-B) | IC50 (Aurora A) | melting point
13 | CCN(CC)CC(O)COc1ccc(Nc2ncc3cnn(C4CCCCC4)c3n2)cc1 (centres unmarked) [Co. No. 1] | 7.94 nM | > 10000 nM | 1580 nM | –
14 | CCN(CC)CCCOc1ccc(Nc2ncc3cnn(C4CCCCC4)c3n2)cc1 [Co. No. 7] | 20 nM | > 10000 nM | > 10000 nM | –
15 | c1ccc2c(c1)CC(NCc1ccc(Nc3ncc4cnn([C@H]5C[C@@H]6CC[C@H]5C6)c4n3)cc1)C2 [Co. No. 4] | 25.1 nM | 316 nM | 316 nM | –
16 | COCCCNCc1ccc(Nc2ncc3cnn(C4CCCCC4)c3n2)cc1 (as salt: HCl) [Co. No. 2] | – | – | – | 212 to 214 °C
17 | COCCCNS(=O)(=O)c1ccc(Nc2ncc3cnn(C4CCCCC4)c3n2)cc1 [Co. No. 5] | 1260 nM | > 10000 nM | 631 nM | –
18 | COCCCNCc1ccc(Nc2ncc3cnn([C@H]4C[C@@H]5CC[C@H]4C5)c3n2)cc1 [Co. No. 9] | 79.4 nM | 158 nM | 251 nM | –
19 | CCN(CC)CCNC(=O)c1ccc(Nc2ncc3cnn(C4CCCCC4)c3n2)cc1 [Co. No. 6] | 25.1 nM | > 10000 nM | 1580 nM | –
20 | COCCCNCc1ccc(Nc2ncc3cnn(C4CCCCC4)c3n2)cc1 [Co. No. 2] | 6.31 nM | > 10000 nM | 158 nM | –
21 | COCCCN(Cc1ccc(Nc2ncc3cnn(C4CCCCC4)c3n2)cc1)C(=O)OC(C)(C)C [Co. No. 8] | 1000 nM | > 10000 nM | 631 nM | –
22 | c1ncn(-c2ccc(Nc3ncc4cnn(C5CCCCC5)c4n3)cc2)n1 [Co. No. 3] | 15.8 nM | 7940 nM | 126 nM | 222.5 to 224 °C

— patent publication US7947694B2, “Substituted pyrazolo[3,4-D]pyrimidines as cell cycle kinase inhibitors” (Janssen Pharmaceutica NV, priority 2005, dated 2011)
